The test system of experiment [1] is leukocytes in human whole blood. The experiment can be described thus: In vitro leukocyte activation in heparinized human whole blood. Format: cell-based. As to conditions: for Lactoferrin: n = 4; for Elastase: n = 5. As to the method: Heparinized human whole blood was added to tubes with or without lipopolysaccharide (LPS) (10 μg/mL) or formyl-Methionyl-Leucyl-Phenylalanine (fMLF, 50 nM). […] The release of IL-6, IL-8, or IL-10 was measured using commercially available ELISA kits from R&D Systems. The release of elastase was measured using a commercially available ELISA kit from Bender MedSystems. The release of lactoferrin was measured using a commercially available ELISA kit from EMD Chemicals. […] Samples were incubated for various times at 37° C. and 5% CO2. CD11b activation was measured using an FITC-conjugated mouse anti-human antibody (AbD Serotech) and evaluated on an Accuri C6 flow cytometer.

In experiment [2] the test system is leukocytes in porcine blood. The experiment can be described thus: Microscopic flow chamber: leukocyte interaction with polysulfone SCD membrane. The class given is cell-based, pig. The text has this: A custom microscopic flow chamber system was set up to enable microscopic analysis of leukocyte interaction with the SCD membrane. The flow chamber consisted of a polycarbonate housing with an inlet and outlet for perfusion. A polysulfone membrane was affixed to the polycarbonate block with a gasket which directed shear flow. The thickness of the gasket (100 μm) along with the length (2 cm) and the width of the channel (1.5 mm) determined the volume of the flow chamber. Microscopic imaging was accomplished through an optical window made up of a cover glass affixed to the bottom of the polycarbonate block. Either isolated blood or purified leukocytes were used for this study.
Isolated blood was prone to activation from excessive handling. […] Blood passed through the flow chamber at a rate of 20 μL/min with calculated shear forces between 1-10 dynes/cm^2. […]
Microscopic analysis of cell capture events was accomplished using either a Zeiss Axiovert 200M or Axio-Observer epifluorescence microscope equipped with a microscope stage-top incubator to control environmental temperature and CO2 content. Fluorescence images were acquired with either a Zeiss MRm3 or an Icc1 camera at a frequency of 1 frame/second for 5 minutes, for analysis of leukocyte/membrane interaction, and at 1 frame/minute for 1 hour sequences, for analysis of long term leukocyte attachment. […]

In experiment [1] (Baseline), heparin displayed a Lactoferrin of 8.47 mg/mL and an Elastase of 2.73 mg/mL. For the same compound, in experiment [1] (Stimulated (LPS, fMLF)), the Lactoferrin is listed as 12.42 mg/mL and the Elastase is given as 4.52 mg/mL.
As for `O=C(O)CC(O)(CC(=O)O)C(=O)O` [Citrate], in experiment [2] (1 hour sequences, LPS and citrate versus LPS only), the “Persistent leukocyte adhesion events” value is listed as “far fewer”. Besides, in experiment [2] (LPS and citrate treated blood), the Rolling events entry is given as “observed increase”.

Values taken from patent publication US11118162B2, “Cytopheresis cartridges and use thereof” (SeaStar Medical, Inc., priority 2010, dated 2021).
